Experimental data as given in patent US10670605B2, “Cysteine reactive probes and uses thereof” (The Scripps Research Institute, priority 2015, dated 2020).

Tests used:
Assay in all cases: Competitive isoTOP-ABPP in situ (fragment-treated cells)
Assay type in all cases: cell-based
[1] = target: T1, cysteines in MDA-MB-231 and Ramos cells (Homo sapiens, UniProt Q96S55); details: 200 μM, insitu, 231
T1 sequence (Q96S55 1-665): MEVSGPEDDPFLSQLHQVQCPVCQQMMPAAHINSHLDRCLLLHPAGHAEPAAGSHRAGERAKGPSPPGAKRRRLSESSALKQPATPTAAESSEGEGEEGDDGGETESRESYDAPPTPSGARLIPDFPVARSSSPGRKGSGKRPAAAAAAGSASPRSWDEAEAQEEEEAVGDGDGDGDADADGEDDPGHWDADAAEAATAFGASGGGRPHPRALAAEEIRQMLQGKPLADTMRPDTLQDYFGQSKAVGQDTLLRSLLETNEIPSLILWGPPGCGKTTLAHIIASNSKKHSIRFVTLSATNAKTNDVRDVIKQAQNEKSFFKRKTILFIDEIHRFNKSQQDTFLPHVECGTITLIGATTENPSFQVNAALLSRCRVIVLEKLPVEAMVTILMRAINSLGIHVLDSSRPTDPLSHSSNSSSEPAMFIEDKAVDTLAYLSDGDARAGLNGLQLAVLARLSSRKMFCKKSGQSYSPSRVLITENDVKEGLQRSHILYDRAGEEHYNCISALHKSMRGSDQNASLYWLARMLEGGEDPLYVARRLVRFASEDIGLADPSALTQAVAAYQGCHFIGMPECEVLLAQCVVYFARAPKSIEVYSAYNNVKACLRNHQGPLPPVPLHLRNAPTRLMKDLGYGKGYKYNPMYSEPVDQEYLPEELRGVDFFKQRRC

[2] = target: T2, cysteines in MDA-MB-231 and Ramos cells (Homo sapiens, UniProt P24752)
T2 sequence (P24752 34-427): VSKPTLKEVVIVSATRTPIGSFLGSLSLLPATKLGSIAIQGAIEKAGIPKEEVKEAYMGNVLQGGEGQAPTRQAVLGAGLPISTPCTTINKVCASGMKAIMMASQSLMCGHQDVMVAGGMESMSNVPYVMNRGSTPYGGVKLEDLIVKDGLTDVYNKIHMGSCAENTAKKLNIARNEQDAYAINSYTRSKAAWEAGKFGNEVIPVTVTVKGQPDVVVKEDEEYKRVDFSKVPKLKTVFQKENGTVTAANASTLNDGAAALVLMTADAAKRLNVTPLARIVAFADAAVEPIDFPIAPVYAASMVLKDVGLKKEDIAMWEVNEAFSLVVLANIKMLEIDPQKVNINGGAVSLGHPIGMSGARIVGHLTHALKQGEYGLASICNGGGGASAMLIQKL

[3] = target: cysteines in MDA-MB-231 and Ramos cells (Homo sapiens, UniProt P83731)
[4] = target: T3, cysteines in MDA-MB-231 and Ramos cells (Homo sapiens, UniProt P42166)
T3 sequence (P42166 1-694): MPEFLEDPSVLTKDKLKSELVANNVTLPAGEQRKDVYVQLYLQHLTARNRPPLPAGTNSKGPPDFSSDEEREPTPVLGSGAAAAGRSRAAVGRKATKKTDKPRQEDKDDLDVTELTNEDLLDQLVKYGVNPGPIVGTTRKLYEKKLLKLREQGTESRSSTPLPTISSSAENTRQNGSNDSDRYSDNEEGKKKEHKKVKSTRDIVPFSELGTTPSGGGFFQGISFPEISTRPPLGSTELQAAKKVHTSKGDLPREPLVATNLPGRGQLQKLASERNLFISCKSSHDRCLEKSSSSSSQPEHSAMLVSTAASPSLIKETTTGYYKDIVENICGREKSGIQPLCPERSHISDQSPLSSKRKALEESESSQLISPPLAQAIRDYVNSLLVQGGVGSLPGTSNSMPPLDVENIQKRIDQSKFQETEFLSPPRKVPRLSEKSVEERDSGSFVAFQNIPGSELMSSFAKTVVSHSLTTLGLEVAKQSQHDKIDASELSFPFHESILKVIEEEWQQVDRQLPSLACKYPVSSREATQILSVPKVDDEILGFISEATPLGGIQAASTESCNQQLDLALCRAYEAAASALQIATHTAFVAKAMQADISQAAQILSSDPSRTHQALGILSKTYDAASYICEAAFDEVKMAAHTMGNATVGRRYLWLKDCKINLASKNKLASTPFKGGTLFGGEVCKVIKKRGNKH

[5] = target: T4, cysteines in MDA-MB-231 and Ramos cells (Homo sapiens, UniProt Q5T0N5)
T4 sequence (Q5T0N5 1-605): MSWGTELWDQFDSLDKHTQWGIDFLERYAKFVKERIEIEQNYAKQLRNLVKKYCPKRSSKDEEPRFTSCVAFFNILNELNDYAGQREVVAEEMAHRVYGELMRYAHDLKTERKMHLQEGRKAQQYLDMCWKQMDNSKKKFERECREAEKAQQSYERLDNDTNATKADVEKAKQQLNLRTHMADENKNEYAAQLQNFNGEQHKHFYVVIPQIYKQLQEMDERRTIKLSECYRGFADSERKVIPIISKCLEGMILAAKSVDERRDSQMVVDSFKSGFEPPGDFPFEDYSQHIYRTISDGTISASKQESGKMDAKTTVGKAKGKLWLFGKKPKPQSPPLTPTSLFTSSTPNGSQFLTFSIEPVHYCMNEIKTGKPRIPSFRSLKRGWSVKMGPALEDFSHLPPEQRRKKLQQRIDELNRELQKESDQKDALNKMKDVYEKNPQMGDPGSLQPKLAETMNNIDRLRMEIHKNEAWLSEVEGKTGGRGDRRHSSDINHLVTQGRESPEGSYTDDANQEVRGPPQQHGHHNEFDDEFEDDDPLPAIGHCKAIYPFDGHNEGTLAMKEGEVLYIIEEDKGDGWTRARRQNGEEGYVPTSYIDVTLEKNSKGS

[6] = target: T5, cysteines in MDA-MB-231 and Ramos cells (Homo sapiens, UniProt P10599)
T5 sequence (P10599 1-105): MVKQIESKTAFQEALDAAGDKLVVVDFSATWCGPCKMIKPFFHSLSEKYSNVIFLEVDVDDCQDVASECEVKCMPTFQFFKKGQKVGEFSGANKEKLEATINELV

[7] = target: cysteines in MDA-MB-231 and Ramos cells (Homo sapiens, UniProt Q9BXW7)
[8] = target: cysteines in MDA-MB-231 and Ramos cells (Homo sapiens, UniProt P38606)
cysteines in MDA-MB-231 and Ramos cells (Homo sapiens, UniProt P38606), sequence (P38606 whole entry): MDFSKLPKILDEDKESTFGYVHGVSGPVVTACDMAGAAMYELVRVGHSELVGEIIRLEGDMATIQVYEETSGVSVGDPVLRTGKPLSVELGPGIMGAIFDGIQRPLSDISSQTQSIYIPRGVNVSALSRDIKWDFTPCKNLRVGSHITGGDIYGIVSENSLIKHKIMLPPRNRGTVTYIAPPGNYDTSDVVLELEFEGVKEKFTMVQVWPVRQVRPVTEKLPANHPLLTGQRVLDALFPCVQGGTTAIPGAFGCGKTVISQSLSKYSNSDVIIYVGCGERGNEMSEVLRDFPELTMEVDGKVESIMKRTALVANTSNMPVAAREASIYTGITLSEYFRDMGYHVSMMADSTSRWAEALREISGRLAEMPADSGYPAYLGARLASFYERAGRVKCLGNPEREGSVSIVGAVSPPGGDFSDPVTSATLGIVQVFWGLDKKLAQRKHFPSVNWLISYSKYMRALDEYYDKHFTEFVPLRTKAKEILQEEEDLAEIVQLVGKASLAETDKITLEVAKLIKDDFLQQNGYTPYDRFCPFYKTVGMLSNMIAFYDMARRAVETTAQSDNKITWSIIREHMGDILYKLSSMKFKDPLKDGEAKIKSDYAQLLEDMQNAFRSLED

cysteines in MDA-MB-231 and Ramos cells (Homo sapiens, UniProt Q9BXW7), sequence (Q9BXW7 24-423): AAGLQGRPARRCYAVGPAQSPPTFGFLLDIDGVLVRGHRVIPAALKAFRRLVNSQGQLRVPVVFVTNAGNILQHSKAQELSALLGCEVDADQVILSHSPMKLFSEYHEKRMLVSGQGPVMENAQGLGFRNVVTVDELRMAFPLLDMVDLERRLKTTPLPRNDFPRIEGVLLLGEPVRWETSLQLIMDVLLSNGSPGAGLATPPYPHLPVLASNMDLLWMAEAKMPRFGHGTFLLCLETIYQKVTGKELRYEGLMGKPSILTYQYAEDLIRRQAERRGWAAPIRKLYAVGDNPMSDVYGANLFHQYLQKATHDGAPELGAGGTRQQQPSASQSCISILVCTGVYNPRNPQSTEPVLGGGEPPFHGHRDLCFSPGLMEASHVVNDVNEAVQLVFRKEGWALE

CC1CCc2ccccc2N1C(=O)CCl (centres unmarked) [compound 45]
isoTOP-ABPP ratio Q96S55_C272 [1]: 2.5
isoTOP-ABPP ratio P24752_C119 ([2]; 200 μM, insitu, 231): 12.4
isoTOP-ABPP ratio P24752_C413 ([2]; 200 μM, insitu, 231): 20.0
isoTOP-ABPP ratio P83731_C6 ([3]; 200 μM, insitu, 231): 1.2
isoTOP-ABPP ratio P42166_C561 ([4]; 200 μM, insitu, 231): 20.0
isoTOP-ABPP ratio P42166_C684 ([4]; 200 μM, insitu, 231): 6.8
isoTOP-ABPP ratio Q5T0N5_C69 ([5]; 200 μM, insitu, 231): 5.4
isoTOP-ABPP ratio P10599_C32 ([6]; 200 μM, insitu, 231): 5.7
isoTOP-ABPP ratio Q9BXW7_C392 ([7]; 200 μM, insitu, 231): 4.9

COc1ccc2c(c1)CCCN2C(=O)CCl [compound 2]
isoTOP-ABPP reactivity Q96S55_C272 WRNIP1 [1]: 2.2
isoTOP-ABPP reactivity P24752_C119 ACAT1 ([2]; 200 μM, insitu, 231): 2.6
isoTOP-ABPP reactivity P24752_C126 ACAT1 ([2]; 200 μM, insitu, 231): 9.1
isoTOP-ABPP reactivity P24752_C196 ACAT1 ([2]; 200 μM, insitu, 231): 20.0
isoTOP-ABPP reactivity P24752_C413 ACAT1 ([2]; 200 μM, insitu, 231): 20.0
isoTOP-ABPP reactivity P83731_C6 RPL24 ([3]; 200 μM, insitu, 231): 2.4
isoTOP-ABPP reactivity P42166_C341 TMPO ([4]; 200 μM, insitu, 231): 10.4
isoTOP-ABPP reactivity P42166_C561 TMPO ([4]; 200 μM, insitu, 231): 8.3
isoTOP-ABPP reactivity P42166_C629 TMPO ([4]; 200 μM, insitu, 231): 4.4
isoTOP-ABPP reactivity Q5T0N5_C69 FNBP1L ([5]; 200 μM, insitu, 231): 20.0
isoTOP-ABPP reactivity P10599_C32 TXN ([6]; 200 μM, insitu, 231): 7.9
isoTOP-ABPP reactivity Q9BXW7_C392 CECR5 ([7]; 200 μM, insitu, 231): 3.6

C=CC(=O)N(Cc1cccnc1)c1cc(C(F)(F)F)cc(C(F)(F)F)c1 [compound 31]
isoTOP-ABPP ratio P24752_C119 ([2]; 200 μM, insitu, 231): 0.6
isoTOP-ABPP ratio P24752_C413 ([2]; 200 μM, insitu, 231): 1.0
isoTOP-ABPP ratio, P24752_C126 ([2]; 200 μM, insitu, 231): 0.7
isoTOP-ABPP ratio P24752_C119 ([2]; 200 μM, insitu, ramos): 0.7
isoTOP-ABPP ratio P38606_C138 ([8]; 200 μM, insitu, ramos): 1.7
isoTOP-ABPP ratio P42166_C561 ([4]; 200 μM, insitu, 231): 1.3
isoTOP-ABPP ratio P42166_C341 ([4]; 200 μM, insitu, ramos): 2.0
isoTOP-ABPP ratio P42166_C561 ([4]; 200 μM, insitu, ramos): 2.5
isoTOP-ABPP ratio P42166_C684 ([4]; 200 μM, insitu, ramos): 3.3
isoTOP-ABPP ratio P10599_C32 ([6]; 200 μM, insitu, 231): 1.2
isoTOP-ABPP ratio P10599_C32 ([6]; 200 μM, insitu, ramos): 1.7

Cn1cc(S(=O)(=O)N2CCOCC2)cc1C(=O)NC(=O)CCl [compound 11]
isoTOP-ABPP ratio P24752_C119 ([2]; 100 μM in situ 231): 1.2
isoTOP-ABPP ratio P24752_C413 ([2]; 100 μM in situ 231): 1.2
isoTOP-ABPP ratio, P24752_C126 ([2]; 100 μM in situ 231): 1.2
isoTOP-ABPP ratio, P24752_C196 ([2]; 100 μM in situ 231): 1.1
isoTOP-ABPP ratio P38606_C138 ([8]; 100 μM in situ 231): 9.2
isoTOP-ABPP ratio P83731_C6 ([3]; 100 μM in situ 231): 0.5
isoTOP-ABPP ratio P42166_C341 ([4]; 100 μM in situ 231): 0.8
isoTOP-ABPP ratio P42166_C561 ([4]; 100 μM in situ 231): 0.6
isoTOP-ABPP ratio, cysteine P42166_C518 ([4]; 100 μM in situ 231): 0.8
isoTOP-ABPP ratio, cysteine P42166_C629 ([4]; 100 μM in situ 231): 0.6
isoTOP-ABPP ratio, cysteine P42166_C684 ([4]; 100 μM in situ 231): 0.7
isoTOP-ABPP ratio Q5T0N5_C69 ([5]; 100 μM in situ 231): 1.3
isoTOP-ABPP ratio P10599_C32 ([6]; 100 μM in situ 231): 13.0
isoTOP-ABPP ratio Q9BXW7_C392 ([7]; 100 μM in situ 231): 1.1

O=C(CCl)N1CCN(CC(=O)N2CCOCC2)CC1 [compound 29]
isoTOP-ABPP ratio P24752_C119 ([2]; 200 μM, insitu, ramos): 1.2
isoTOP-ABPP ratio P24752_C413 ([2]; 200 μM, insitu, ramos): 1.2
isoTOP-ABPP ratio, P24752_C126 ([2]; 200 μM, insitu, ramos): 1.2
isoTOP-ABPP ratio, P24752_C196 ([2]; 200 μM, insitu, ramos): 1.1
isoTOP-ABPP ratio P83731_C6 ([3]; 200 μM, insitu, ramos): 1.6
isoTOP-ABPP ratio P42166_C561 ([4]; 200 μM, insitu, ramos): 0.9
isoTOP-ABPP ratio P42166_C629 ([4]; 200 μM, insitu, ramos): 1.6
isoTOP-ABPP ratio P10599_C32 ([6]; 200 μM, insitu, ramos): 1.9
isoTOP-ABPP ratio Q9BXW7_C392 ([7]; 200 μM, insitu, ramos): 1.5

O=C(CCl)N1CCC(Cc2ccccc2)CC1 [compound 9]
isoTOP-ABPP reactivity Q96S55_C272 WRNIP1 [1]: 4.5
isoTOP-ABPP reactivity P24752_C119 ACAT1 ([2]; 200 μM, insitu, 231): 3.8
isoTOP-ABPP reactivity P24752_C126 ACAT1 ([2]; 200 μM, insitu, 231): 14.1
isoTOP-ABPP reactivity P24752_C196 ACAT1 ([2]; 200 μM, insitu, 231): 5.8
isoTOP-ABPP reactivity P24752_C413 ACAT1 ([2]; 200 μM, insitu, 231): 19.5
isoTOP-ABPP reactivity P38606_C138 ATP6V1A ([8]; 200 μM, insitu, 231): 20.0
isoTOP-ABPP reactivity P83731_C6 RPL24 ([3]; 200 μM, insitu, 231): 4.3
isoTOP-ABPP reactivity P42166_C561 TMPO ([4]; 200 μM, insitu, 231): 3.7
isoTOP-ABPP reactivity P10599_C32 TXN ([6]; 200 μM, insitu, 231): 20.0
isoTOP-ABPP reactivity Q9BXW7_C392 CECR5 ([7]; 200 μM, insitu, 231): 1.5
